Experimental data as given in US12162888B2, “Carboxamides as ubiquitin-specific protease inhibitors” (Valo Early Discovery, Inc., priority 2018, dated 2024).
Where two headings read alike, the source gives them in different places.

Target: T1, USP25 (USP25-His6, Boston Biochem E-546) (Homo sapiens, UniProt Q9UHP3)
T1 construct: His6 (C); purchased Boston Biochem E-546
T1 sequence (Q9UHP3 1-1055): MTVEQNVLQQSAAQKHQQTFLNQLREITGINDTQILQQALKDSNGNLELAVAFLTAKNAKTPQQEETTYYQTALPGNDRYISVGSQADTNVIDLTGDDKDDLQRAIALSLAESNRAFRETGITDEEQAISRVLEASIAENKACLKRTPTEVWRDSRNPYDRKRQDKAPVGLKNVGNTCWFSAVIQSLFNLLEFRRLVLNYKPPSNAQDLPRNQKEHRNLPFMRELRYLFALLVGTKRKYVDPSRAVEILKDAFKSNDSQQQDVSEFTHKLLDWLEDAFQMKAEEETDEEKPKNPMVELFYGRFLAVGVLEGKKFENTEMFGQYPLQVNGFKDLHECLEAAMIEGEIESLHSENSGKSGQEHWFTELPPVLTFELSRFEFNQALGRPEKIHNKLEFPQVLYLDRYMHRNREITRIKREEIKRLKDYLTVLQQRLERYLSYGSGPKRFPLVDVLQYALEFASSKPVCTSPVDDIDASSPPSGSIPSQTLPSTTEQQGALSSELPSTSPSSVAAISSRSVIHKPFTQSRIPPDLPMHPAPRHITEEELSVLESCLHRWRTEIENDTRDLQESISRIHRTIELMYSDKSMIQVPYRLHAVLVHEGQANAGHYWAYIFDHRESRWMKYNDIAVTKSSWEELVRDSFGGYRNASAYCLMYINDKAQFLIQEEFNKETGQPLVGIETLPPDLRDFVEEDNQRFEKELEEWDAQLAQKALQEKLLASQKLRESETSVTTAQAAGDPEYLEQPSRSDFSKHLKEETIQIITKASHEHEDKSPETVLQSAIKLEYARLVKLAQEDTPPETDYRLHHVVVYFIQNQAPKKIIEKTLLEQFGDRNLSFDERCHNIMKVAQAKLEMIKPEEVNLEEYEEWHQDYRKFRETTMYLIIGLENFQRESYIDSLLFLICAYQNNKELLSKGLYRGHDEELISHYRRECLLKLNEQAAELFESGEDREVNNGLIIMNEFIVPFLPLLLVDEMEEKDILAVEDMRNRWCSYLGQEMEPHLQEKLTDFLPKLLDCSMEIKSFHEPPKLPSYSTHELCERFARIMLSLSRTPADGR
Test: Ubiquitin-Rhodamine 110 Assay for USP25 Activity, Example A-3
Type: biochemical
Conditions: Ubiquitin-Rhodamine 110 assay, Example A-3
How it was run: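 USP25-His6 ([…] final as stated) preincubated 30 min with compound (10-point, 25 μM to 1.3 nM), then Ub-Rh110 at 25 nM (<<Km) added in pH 8.0 Tris buffer with BME, BGG and Triton X-100. Reaction stopped after 45 min at room temperature with 10 mM citric acid; fluorescence read at 485/535 nm.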

[1] = biochemical IC50 range, read-out: USP25 A-3

| SMILES | IC50 (read-out: USP25 A-3 IC50 range) [nM] | other results |
| --- | --- | --- |
| CO[C@H]1CN(c2ccc3c(c2)OC[C@H](NC(=O)c2sc4nc(C)cnc4c2N)C3)C[C@@H]1N [Example 117] | 200 to 2000 | – |
| Cc1cnc2c(N)c(C(=O)N[C@@H]3CCc4c(ccc(N5CCNCC5)c4F)C3)sc2n1 (single isomer, unassigned) [Example 21-9] | 200 to 2000 | – |
| CN[C@@H]1CN(c2ccc3c(c2)OC[C@H](NC(=O)c2sc4nc(C)ccc4c2N)C3)C[C@H]1CF [Example 663, 3-amino-N-[(3R)-7-[(3R,4S)-3-(fluoromethyl)-4-(methylamino)pyrrolidin-1-yl]-3,4-dihydro-2H-1-benzopyran-3-yl]-6-methylthieno[2,3-b]pyridine-2-carboxamide] | – | IC50 [1]: 50 to 200 nM |
| CCn1ccc2cc(C(=O)N[C@H]3CCc4nc(N5C[C@H](COC)[C@H](N)C5)ccc4C3)cnc21 (single isomer, unassigned) [Example 401] | > 2000 | – |
| N#Cc1c(N2CC3CCC(C2)N3)cc(F)c2c1OC[C@H](NC(=O)c1cnc3c(c1)[C@@H]1CC1CN3)C2 (stereo partly drawn) [Example 228, (6aS,7aR)-N-[(3R)-8-cyano-7-(3,8-diazabicyclo[3.2.1]octan-3-yl}-5-fluoro-3,4-dihydro-2H-1-benzopyran-3-yl]-5H,6H,6aH,7H,7aH-cyclopropa[c]1,8-naphthyridine-2-carboxamide] | – | IC50 (IC50 ranges, read-out: USP25 A-3 IC50): 200 to 2000 nM |
| COC1CN(c2ccc3c(c2)CC[C@H](NC(=O)c2sc4nc(C)cnc4c2N)C3)CC1N (stereo in doubt) [Example 130, 7-amino-N-[(2S)-6-[(3S,4S)-3-amino-4-methoxypyrrolidin-1-yl]-1,2,3,4-tetrahydronaphthalen-2-yl]-3-methylthieno[2,3-b]pyrazine-6-carboxamide] | – | IC50 [1]: 200 to 2000 nM |
| Cc1cnc2c(N)c(C(=O)N[C@H]3CCc4cc(N5C[C@H]6C[C@@H]5CN6)ccc4C3)sc2n1 (single isomer, unassigned) [Example 11-31] | 200 to 2000 | – |
| CO[C@H]1CN(c2cc(F)c3c(c2C#N)CC[C@@H](NC(=O)c2sc4nc(C)ccc4c2N)C3)C[C@@H]1N (single isomer, unassigned) [Example 14-24] | > 2000 | – |
| Cc1cnc2c(N)c(C(=O)N[C@H]3CCc4c(C#N)c(N5CCNCC5)cc(F)c4C3)sc2n1 (single isomer, unassigned) [Example 14-12] | > 2000 | – |
| Cc1nc2sc(C(=O)N[C@H]3CCc4c(C#N)c(N5CCNCC5)cc(F)c4C3)c(N)c2s1 (single isomer, unassigned) [Example 14-14] | 200 to 2000 | – |
| Cc1cnc2c(N)c(C(=O)N[C@@H]3CCc4c(C#N)c(N5CC6CCC(C5)N6)cc(F)c4C3)sc2n1 (single isomer, unassigned) [Example 14-20] | > 2000 | – |
| Cc1cnc2c(N)c(C(=O)N[C@@H]3CCc4cc(N5CCNCC5)ccc4C3)sc2n1 (single isomer, unassigned) [Example 11-20] | > 2000 | – |
| [2H]C1([2H])c2c(F)cc(N3CCNCC3)cc2OC[C@@H]1NC(=O)c1sc2nc(C)ccc2c1N (single isomer, unassigned) [Example 33-1] | 200 to 2000 | – |
| O=C(N[C@H]1COc2cc(N3CCNCC3)ccc2C1)c1ccc(NCc2cccc3cn[nH]c23)nc1 [Example 698, 6-{[(1H-indazol-7-yl)methyl]amino}-N-[(3R)-7-(piperazin-1-yl)-3,4-dihydro-2H-1-benzopyran-3-yl]pyridine-3-carboxamide] | – | IC50 [1]: 200 to 2000 nM |
| Cc1ccc2c(N)c(C(=O)N[C@H]3COc4cc(N5C[C@@H]6CCNC[C@@H]65)cc(F)c4C3)sc2n1 [Example 665, 3-amino-N-[(3R)-7-[(1R,6S)-3,8-diazabicyclo[4.2.0]octan-8-yl]-5-fluoro-3,4-dihydro-2H-1-benzopyran-3-yl]-6-methylthieno[2,3-b]pyridine-2-carboxamide] | – | IC50 [1]: 50 to 200 nM |
| [2H]C1([2H])c2c(F)cc(N3CCNCC3)cc2OC[C@H]1NC(=O)c1sc2nc(C)ccc2c1N (single isomer, unassigned) [Example 33-2] | > 2000 | – |
| Cc1cnc2c(N)c(C(=O)N[C@@H]3CCc4cc(N5CCNCC5)c(F)cc4C3)sc2n1 (single isomer, unassigned) [Example 21-11] | > 2000 | – |

| SMILES | IC50 (read-out: USP25 A-3 IC50 range) [nM] | other results |
| --- | --- | --- |
| Cc1cnc2c(N)c(C(=O)N[C@@H]3CCc4cc(N5C[C@@H]6C[C@H]5CN6)ccc4C3)sc2n1 (single isomer, unassigned) [Example 11-30] | 200 to 2000 | – |
| CN[C@@H]1CCN(c2ccc3c(c2)CC[C@H](NC(=O)c2sc4nc(C)cnc4c2N)C3)C1 (single isomer, unassigned) [Example 11-27] | 200 to 2000 | – |
| Cc1cnc2c(N)c(C(=O)N[C@@H]3CCc4cc(N5C[C@H]6C[C@@H]5CN6)ccc4C3)sc2n1 (single isomer, unassigned) [Example 11-32] | 200 to 2000 | – |
| Cc1nc2sc(C(=O)N[C@@H]3CCc4c(C#N)c(N5CCNCC5)cc(F)c4C3)c(N)c2s1 (single isomer, unassigned) [Example 14-13] | > 2000 | – |
| CO[C@H]1CN(c2ccc3c(c2)OC[C@H](NC(=O)c2sc4nc(C)sc4c2N)C3)CC1N (stereo partly drawn) [Example 118, 6-amino-N-[(3R)-7-[(3,4S)-3-amino-4-methoxypyrrolidin-1-yl]-3,4-dihydro-2H-1-benzopyran-3-yl]-2-methylthieno[2,3-d][1,3]thiazole-5-carboxamide] | 200 to 2000 | – |
| CO[C@@H]1CN(c2ccc3c(c2)OC[C@H](NC(=O)c2sc4nc(C)cnc4c2N)C3)C[C@@H]1N [Example 147, 7-amino-N-[(3R)-7-[(3S,4R)-3-amino-4-methoxypyrrolidin-1-yl]-3,4-dihydro-2H-1-benzopyran-3-yl]-3-methylthieno[2,3-b]pyrazine-6-carboxamide] | – | IC50 [1]: 200 to 2000 nM |
| CN[C@H]1CN(c2ccc3c(c2)OC[C@H](NC(=O)c2sc4nc(C)ccc4c2N)C3)C[C@@H]1CF [Example 662, 3-amino-N-[(3R)-7-[(3S,4R)-3-(fluoromethyl)-4-(methylamino)pyrrolidin-1-yl]-3,4-dihydro-2H-1-benzopyran-3-yl]-6-methylthieno[2,3-b]pyridine-2-carboxamide] | – | IC50 [1]: 1 to 50 nM |
| Cc1ccc2c(N)c(C(=O)N[C@H]3COc4cc(N5C[C@H](CF)[C@H](N)C5)ccc4C3)sc2n1 (single isomer, unassigned) [Example 424] | 200 to 2000 | – |
| Cc1cnc2c(N)c(C(=O)N[C@H]3CCc4cc(N5CCNCC5)c(F)cc4C3)sc2n1 (single isomer, unassigned) [Example 21-12] | 200 to 2000 | – |
| Cc1ccc2c(N)c(C(=O)N[C@H]3CCc4cc(N5C[C@H](CF)[C@H](N)C5)ccc4C3)sc2n1 [Example 657, 3-amino-N-[(2S)-6-[(3S,4S)-3-amino-4-(fluoromethyl)pyrrolidin-1-yl]-1,2,3,4-tetrahydronaphthalen-2-yl]-6-methylthieno[2,3-b]pyridine-2-carboxamide] | – | IC50 [1]: 200 to 2000 nM |
| Cc1cnc2c(N)c(C(=O)N[C@H]3CCc4cc(N5CCNCC5)ccc4C3)sc2n1 (single isomer, unassigned) [Example 11-19] | 200 to 2000 | – |
| Cc1ccc2c(N)c(C(=O)N[C@@H]3CCc4c(C#N)c(N5CCNCC5)cc(F)c4C3)sc2n1 (single isomer, unassigned) [Example 14-9] | > 2000 | – |
| Cc1ccc2c(N)c(C(=O)N[C@H]3CCc4nc(N5C[C@@H](N)[C@]6(CCOC6)C5)ccc4C3)sc2n1 [Example 438, 3-amino-N-[(6S)-2-[(5S, 9S)-9-amino-2-oxa-7-azaspiro[4.4]nonan-7-yl]-5,6,7,8-tetrahydroquinolin-6-yl]-6-methylthieno[2,3-b]pyridine-2-carboxamide] | > 2000 | – |
| CN[C@H]1CCN(c2ccc3c(c2)CC[C@H](NC(=O)c2sc4nc(C)cnc4c2N)C3)C1 (single isomer, unassigned) [Example 11-25] | 200 to 2000 | – |
| Cc1ccc2c(N)c(C(=O)N[C@H]3COc4cc(N5C[C@@H](N)[C@@](C)(CF)C5)ccc4C3)sc2n1 [Example 660, 3-amino-N-[(3R)-7-[(3S,4S)-4-amino-3-(fluoromethyl)-3-methylpyrrolidin-1-yl]-3,4-dihydro-2H-1-benzopyran-3-yl]-6-methylthieno[2,3-b]pyridine-2-carboxamide] | – | IC50 [1]: 1 to 50 nM |
| CN[C@H]1CCN(c2ccc3c(c2)CC[C@@H](NC(=O)c2sc4nc(C)cnc4c2N)C3)C1 (single isomer, unassigned) [Example 11-26] | > 2000 | – |
